Experimental findings from patent US10506759B2, “Rice seed treatment agent” (KUMIAI CHEMICAL INDUSTRY CO., LTD., priority 2015, dated 2019) are described below.

For data set [1], the system named is Monochoria vaginalis. The experiment in a line: Test Example 2: growth-inhibitory effect on weeds (pot test). It counts as in vivo. As to conditions: Table 6; paddy seeds sown at five-leaf stage of weed; scale 0 to 100; Day 22 after sowing. How it is done:
(§1) Treatment of dried paddy seeds was carried out at a coating ratio of 0.5 (seeds:iron powder=1:0.5). More specifically, paddy seeds, an iron powder, and calcined gypsum were mixed and stirred together while spraying water thereon, using a coating machine according to a conventional method, to coat the seeds with the iron powder and the calcined gypsum. The outer layer of the coated seeds was further similarly coated with finishing calcined gypsum mixed with each of the paddy seed treatment agents containing the herbicidal active components shown in Tables 2 to 6.
(§2) In a 200-cm^2 plastic pot, paddy field soil was placed, and tillage was carried out, followed by sowing seeds of Scirpus juncoides on the soil surface. Then, the seeds were covered with 0.5-cm thick soil. Subsequently, flooding was allowed to a depth of 4 cm, followed by sowing seeds of Monochoria vaginalis on the soil surface. When the Monochoria vaginalis reached the five-leaf stage, three paddy seeds treated with each paddy seed treatment agent obtained in Preparation Example were sown. On Day 22 after the sowing of paddy seeds, the germination rate of the paddy seeds and the growth-inhibitory effect on the weeds were judged. Since Lindernia species were spontaneously grown in the test field soil, the growth-inhibitory effect on the Lindernia species were also judged. The germination rate of the paddy seeds is expressed as %, and the growth-inhibitory effect on the weeds is expressed as a value of 0 to 100 representing the degree of inhibition, wherein 0 represents no inhibition, and 100 represents complete death.

In data set [2] the test system is Lindernia species. The data set is described as above. It counts as in vivo. The following applies: Table 6; spontaneously grown weeds; scale 0 to 100; Day 22 after sowing. As to the method:
as §1, §2

The subject of data set [3] is Scirpus juncoides. The description is as above. Format: in vivo. As to conditions: Table 6; scale 0 to 100 (complete death); Day 22 after sowing of paddy seeds. As to the method:
as §1, §2

Data set [4] relates to paddy rice. As to conditions: in vivo, 22 days. How it is done: as §1
as §2, with “On Day 22 after the sowing of paddy seeds, the germination rate of the paddy seeds and the growth-inhibitory effect on the weeds were judged. Since Lindernia species were spontaneously grown in the test field soil, the growth-inhibitory effect on the Lindernia species were also judged.” left out

The test system of data set [5] is paddy rice. The experiment in a line: Test Example 1: germination rate of treated paddy seeds (pot test). Format: in vivo. How it is done: as §1
In a 200-cm^2 plastic pot, paddy field soil was placed, and tillage was carried out, followed by sowing seeds of Echinochloa oryzicola and Scirpus juncoides on the soil surface. Then, tubers of Eleocharis kuroguwai in the germination state were buried in such a manner that tips of the sprouts in tubers are exposed to the outside of the soil surface. Four paddy seeds treated with each paddy seed treatment agent obtained in Preparation Example were sown, and water was gently introduced to allow flooding to a depth of 4 cm. On Day 7 after the sowing, the water was removed by suction. When the rice seedlings have grown to the one-leaf stage, flooding was allowed again to a depth of 4 cm. On Day 15 after the sowing, the germination rate of the paddy seeds and the growth-inhibitory effect on the weeds were judged. The germination rate of the paddy seeds is expressed as %, and the growth-inhibitory effect on the weeds is expressed as a value of 0 to 100 representing the degree of inhibition, wherein 0 represents no inhibition, and 100 represents complete death.

Molecules are shown by their SMILES. Like-named read-outs stand apart in the source and are kept apart here.

For `COc1ccc(-n2c(=O)c(C(=O)C3C(=O)CCCC3=O)nc3c(Cl)cccc32)cc1` [Example 1, Fenquinotrione], the “Growth-inhibitory rate Monochoria vaginalis” value in data set [1] is listed as 95. The “Growth-inhibitory rate Lindernia species” value in data set [2] is listed as 95. In data set [3], the “Growth-inhibitory rate Scirpus juncoides” value is listed as 98. Besides, the “Germination rate of paddy rice (%)” value in data set [4] was found to be 100%; in data set [5] (Table 2, iron-coated seeds treated with agent (a.i. g per 1 kg seeds as in row), Day 15 after sowing), 100%.

As for `CS(=O)(=O)c1ccc(C(=O)C2C(=O)CCCC2=O)c(Cl)c1COCC1CCCO1` (stereo not shown) [compound 1, Tefuryltrione], the “Germination rate of paddy rice (%)” value in data set [5] (in vivo) is reported as 50%.

Regarding `CS(=O)(=O)c1ccc(C(=O)C2=C(Sc3ccccc3)C3CCC(C3)C2=O)c(Cl)c1` (stereo not shown) [compound 2, Benzobicyclon], the “Germination rate of paddy rice (%)” value in data set [5] (in vivo) amounted to 50%.
